Among the test systems are T-47D breast; OVCAR-3 ovarian; DU-145 prostate; HT29 colon; MDA-MB-435; HCC-2998 colon; HOP-62 NSCLC; PC-3 prostate; SK-MEL-28 melanoma; RPMI-8226 leukemia.
What all share (assay): inhibition of tumour cell growth, NCI panel, 48 h

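Compound exposure: 48 hours, 5 concentrations, 96-well plates. Here, GI50 denotes the concentration required for 50% inhibition of growth. TGI marks complete inhibition of growth.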

For the molecule `COC(=O)c1cc(-c2ccccc2)[nH]c1N/N=C/c1c(Cl)cccc1Cl`, the GI50 in the assay on T-47D breast is 418 nM; in the assay with OVCAR-3 ovarian, 170 nM; in the assay on DU-145 prostate it was 322 nM; in the assay with HT29 colon, 350 nM; with MDA-MB-435, 31.1 nM; with HCC-2998 colon, 363 nM. In addition, the GI50 in the assay on HOP-62 NSCLC was 471 nM; in the assay with PC-3 prostate, 410 nM; in the assay with SK-MEL-28 melanoma, 535 nM; in the assay with RPMI-8226 leukemia, 243 nM. The TGI with T-47D breast was 7360 nM; in the assay on OVCAR-3 ovarian it was 356 nM; in the assay on DU-145 prostate, 1140 nM; with MDA-MB-435 it was 119 nM; in the assay with HCC-2998 colon, 23400 nM; with HOP-62 NSCLC it was above 33600 nM. The TGI stood at 17400 nM with SK-MEL-28 melanoma and 753 nM in the assay on RPMI-8226 leukemia.

On to `C=CC(=O)N1CCC(c2ccc(C(N)=O)c(-c3ccc(Oc4ccccc4)cc3)n2)CC1`, for which the GI50 in the assay with T-47D breast is 16100 nM; in the assay with OVCAR-3 ovarian, 36000 nM; with DU-145 prostate, 31700 nM; with HT29 colon, 46700 nM; in the assay with MDA-MB-435, 29100 nM; in the assay on HCC-2998 colon, 58100 nM. Moreover, the GI50 in the assay on HOP-62 NSCLC is 56200 nM; in the assay with PC-3 prostate it was 29500 nM; with SK-MEL-28 melanoma it was 51500 nM; in the assay with RPMI-8226 leukemia it was 20400 nM. The TGI in the assay with T-47D breast is 95700 nM; with OVCAR-3 ovarian, above 100000 nM; in the assay with DU-145 prostate, above 100000 nM; in the assay with HT29 colon, above 100000 nM; in the assay on MDA-MB-435 it was above 100000 nM; in the assay with HCC-2998 colon it was above 100000 nM. Moreover, the TGI in the assay with HOP-62 NSCLC is above 100000 nM; with PC-3 prostate, above 100000 nM; in the assay on SK-MEL-28 melanoma, above 100000 nM; in the assay on RPMI-8226 leukemia it was 73700 nM.

For the molecule `CCCn1c2c(c3c(O)cccc31)C(=O)c1ccccc1-2`, the GI50 was 10000 nM in the assay on T-47D breast; 31300 nM in the assay on OVCAR-3 ovarian; 23400 nM in the assay with DU-145 prostate; 29700 nM in the assay with HT29 colon; above 100000 nM in the assay on MDA-MB-435; 9720 nM in the assay on HCC-2998 colon. The GI50 in the assay on HOP-62 NSCLC is 8240 nM; in the assay on PC-3 prostate, 12600 nM; in the assay with SK-MEL-28 melanoma, 10400 nM; with RPMI-8226 leukemia it was 7340 nM. The TGI with T-47D breast, in the assay on OVCAR-3 ovarian, with DU-145 prostate, in the assay on HT29 colon, in the assay with MDA-MB-435 and in the assay with HCC-2998 colon was above 100000 nM in each case. Moreover, the TGI with HOP-62 NSCLC is 27600 nM; in the assay on PC-3 prostate, 36000 nM; with SK-MEL-28 melanoma, 39100 nM; in the assay with RPMI-8226 leukemia it was above 100000 nM.

With `Nc1ccn(C2CC(F)C(CO)O2)c(=O)n1` (configuration not stated), the GI50 in the assay with T-47D breast, with OVCAR-3 ovarian, in the assay on DU-145 prostate, with HT29 colon, in the assay on MDA-MB-435 and with HCC-2998 colon was above 100000 nM throughout. Also, the GI50 in the assay with HOP-62 NSCLC, in the assay on PC-3 prostate, in the assay on SK-MEL-28 melanoma and in the assay on RPMI-8226 leukemia was above 100000 nM each time. The TGI in the assay on T-47D breast, with OVCAR-3 ovarian, in the assay on DU-145 prostate, with HT29 colon, in the assay on MDA-MB-435 and in the assay with HCC-2998 colon was above 100000 nM in each case. For the same molecule, the TGI in the assay with HOP-62 NSCLC, with PC-3 prostate, in the assay on SK-MEL-28 melanoma and in the assay with RPMI-8226 leukemia was above 100000 nM throughout.

Consider `O=[N+]([O-])c1cc[n+]([O-])c2ccccc12`, for which the GI50 is 321 nM in the assay on T-47D breast; 197 nM with OVCAR-3 ovarian; 39.2 nM in the assay on DU-145 prostate; 246 nM with HT29 colon; 436 nM in the assay on MDA-MB-435; 347 nM with HCC-2998 colon. Also, the GI50 in the assay with HOP-62 NSCLC was 221 nM; in the assay with PC-3 prostate, 222 nM; with SK-MEL-28 melanoma it was 1240 nM; in the assay on RPMI-8226 leukemia, 43.9 nM. Also, the TGI with T-47D breast was found to be 4250 nM; with OVCAR-3 ovarian, 471 nM; in the assay with DU-145 prostate, 173 nM; with HT29 colon, 1090 nM; in the assay on MDA-MB-435, 1310 nM; in the assay with HCC-2998 colon, 800 nM. The TGI in the assay with HOP-62 NSCLC was determined as 1130 nM; in the assay with PC-3 prostate, 2360 nM; with SK-MEL-28 melanoma it was 2640 nM; with RPMI-8226 leukemia, 358 nM.

As for `C=C1C(=O)O[C@H]2[C@H]1CC/C(COC(=O)CCCCCC(=O)OC/C1=C/CC[C@@]3(C)O[C@H]3[C@H]3OC(=O)C(=C)[C@@H]3CC1)=C\CC[C@@]1(C)O[C@@H]21`, the GI50 in the assay on T-47D breast is 1960 nM; with OVCAR-3 ovarian it was 1110 nM; in the assay on DU-145 prostate, 3190 nM; in the assay on HT29 colon, 1970 nM; in the assay on MDA-MB-435 it was 2580 nM; with HCC-2998 colon it was 1950 nM. For the same molecule, the GI50 was 2340 nM in the assay on HOP-62 NSCLC, 2240 nM in the assay on PC-3 prostate, 2450 nM with SK-MEL-28 melanoma and 1690 nM in the assay with RPMI-8226 leukemia. The TGI was 5740 nM with T-47D breast; 2380 nM in the assay on OVCAR-3 ovarian; 12100 nM in the assay on DU-145 prostate; 3840 nM in the assay with HT29 colon; 8920 nM with MDA-MB-435; 3980 nM with HCC-2998 colon. The TGI in the assay with HOP-62 NSCLC is 6460 nM; in the assay on PC-3 prostate, 5960 nM; with SK-MEL-28 melanoma it was 6840 nM; in the assay on RPMI-8226 leukemia, 5510 nM.

Consider `O=C(CCN1CCCC1)Nc1ccc2c(NCc3ccccc3)c3ccccc3nc2c1`, for which the GI50 was 562 nM with T-47D breast; 495 nM in the assay with OVCAR-3 ovarian; 394 nM in the assay with DU-145 prostate; 324 nM with HT29 colon; 481 nM in the assay on MDA-MB-435; 466 nM in the assay with HCC-2998 colon. Further, the GI50 with HOP-62 NSCLC was 471 nM; in the assay with PC-3 prostate it was 442 nM; in the assay on SK-MEL-28 melanoma, 1170 nM; in the assay with RPMI-8226 leukemia, 411 nM. For the same molecule, the TGI was found to be 2890 nM with T-47D breast; 1970 nM in the assay with OVCAR-3 ovarian; 1510 nM with DU-145 prostate; 1700 nM with HT29 colon; 1690 nM in the assay on MDA-MB-435; 2020 nM with HCC-2998 colon. Further, the TGI with HOP-62 NSCLC came to 2510 nM; in the assay with PC-3 prostate, 2030 nM; in the assay with SK-MEL-28 melanoma it was 2490 nM.

These data come from PubChem BioAssay (NCI).
